Results as given in patent publication US20110230471A1, “BENZONAPHTYRIDINE COMPOUNDS AS INHIBITORS OF AUTOTAXIN” (MERCK PATENT GESELLSCHAFT MIT BESCHRANKTER HAFTUNG, priority 2008, published 2011).

Target: T1, recombinant autotaxin (Homo sapiens, UniProt Q13822)
T1 construct: made in house; host or cells: Hi5 insect cells (baculovirus)
Test: Autotaxin test (enzyme test), Amplex Red
Assay type: biochemical
Conditions: Autotaxin inhibition (enzyme test), TABLE 1 (A compounds); substrate LPC 75 μM
Procedure: The autotaxin activity is measured indirectly using Amplex Red reagent. Amplex Red is measured here as fluorogenic indicator for the H2O2 formed. In detail, autotaxin converts the substrate lysophosphatidylcholine (LPC) into phosphocholine and lysophosphatidylic acid (LPA). After this reaction, the phosphocholine is reacted with alkaline phosphatase to give inorganic phosphate and choline. In the next step, choline is oxidised by choline oxidase to give betaine, with formation of H2O2. H2O2 reacts with Amplex Red reagent in the presence of peroxidase (horseradish peroxidase) in a 1:1 stoichiometry and forms the highly fluorescent resorufin. The fluorescence is measured in a reaction-dependent kinetic mode in order that fluorescent signals from possible other fluorescent substances which are not involved in the reaction can be corrected out.
1.5 μl of a standard solution or of the test substances (substances with the name A(n))in individual concentrations dissolved in 20 mM Hepes pH 7.2 with a maximum of 7.7% of DMSO are pre-incubated together with 10 μl (16 ng) of highly purified recombinant autotaxin in a black microtitre plate provided with 384 wells at 22° C. for 30 min. The reaction is then initiated by addition of 5 μl of L-α-lysophosphatidylcholine (LPC), where the final concentration of LPC is 75 μM. The mixture is incubated at 37° C. for 90 min. After the incubation, Amplex Red reagent, peroxidase (horseradish peroxidase) and choline oxidase is added, and the fluorescence is immediately measured at 612 nm with excitation of 485 nm in a “Tecan Ultra multimode” reader. The activity of autotaxin is calculated indirectly via detection of the H2O2 formed.
• Microtitre plate: PS microplate, 384 wells, small volume, black Corning, Cat#3677 • Protein: recombinant autotaxin (Baculovirale Hi5 Expression) • Substrate: L-α-lysophosphatidylcholine (chicken egg)); Avanti Polar Lipids # 830071 P • Standard: C14 LPA, Avanti Polar Lipids, Cat# 857120P • Detection reagent: Amplex Red reagent; Invitrogen # A12222; dissolved in 1.923 ml of DMSO peroxidase type VI-A (horseradish) from Sigma # P6782; dissolved in 7.45 ml of test buffer, choline oxidase; Sigma # C5896; dissolved in 2.47 ml of test buffer • Detection reagent mix: 1:100 dilution of Amplex Red reagent in test buffer • Test buffer: 200 mM Tris HCl, Merck, Cat # 1.08219, pH 7.9, 0.1% of BSA, lipid-free, Roche Cat#775835

SMILES | IC50 [nM]
COc1ccc(Cl)cc1NC(=O)CN1CCc2nc3ccccc3c(C(=O)N3CCN(C)CC3)c2C1 [Compound A1, N-(5-chloro-2-methoxyphenyl)-2-[10-(4-methylpiperazine-1-carbonyl)-3,4-dihydro-1H-benzo[b][1,6]naphthyridin-2-yl]acetamide] | < 100
COc1ccc(Cl)cc1NC(=O)CN1CCc2nc3ccccc3c(C(=O)N3CCOCC3)c2C1 [Compound A7, N-(5-chloro-2-methoxyphenyl)-2-[10-(morpholine-4-carbonyl)-3,4-dihydro-1H-benzo[b][1,6]naphthyridin-2-yl]acetamide] | < 100
O=C(CN1CCc2nc3ccccc3c(C(=O)N3CCOCC3)c2C1)Nc1cccc(Cl)c1 [Compound A9, N-(3-Chlorophenyl)-2-[10-(morpholine-4-carbonyl)-3,4-dihydro-1H-benzo-[b][1,6]naphthyridin-2-yl]acetamide] | > 1000
COc1ccccc1NC(=O)CN1CCc2nc3ccccc3c(C(=O)N3CCOCC3)c2C1 [Compound A10, N-(2-Methoxyphenyl)-2-[10-(morpholine-4-carbonyl)-3,4-dihydro-1H-benzo-[b][1,6]naphthyridin-2-yl]acetamide] | > 1000
Cc1ccc(Cl)cc1NC(=O)CN1CCc2nc3ccccc3c(C(=O)N3CCOCC3)c2C1 [Compound A11, N-(5-Chloro-2-methylphenyl)-2-[10-(morpholine-4-carbonyl)-3,4-dihydro-1H-benzo[b][1,6]naphthyridin-2-yl]acetamide] | > 1000
COc1ccc(C)cc1NC(=O)CN1CCc2nc3ccccc3c(C(=O)N3CCOCC3)c2C1 [Compound A12, N-(2-Methoxy-5-methylphenyl)-2-[10-(morpholine-4-carbonyl)-3,4-dihydro-1H-benzo[b][1,6]naphthyridin-2-yl]acetamide] | 100 to 1000
COc1ccc(Br)cc1NC(=O)CN1CCc2nc3ccccc3c(C(=O)N3CCOCC3)c2C1 [Compound A13, N-(5-Bromo-2-methoxyphenyl)-2-[10-(morpholine-4-carbonyl)-3,4-dihydro-1H-benzo[b][1,6]naphthyridin-2-yl]acetamide] | < 100
COc1ccc(-c2ccccc2)cc1NC(=O)CN1CCc2nc3ccccc3c(C(=O)N3CCOCC3)c2C1 [Compound A14, N-(4-Methoxybiphenyl-3-yl)-2-[10-(morpholine-4-carbonyl)-3,4-dihydro-1H-benzo[b][1,6]naphthyridin-2-yl]acetamide] | 100 to 1000
COc1ccc(Cl)cc1NC(=O)CN1CCc2nc3cc(Cl)ccc3c(C(=O)N3CCOCC3)c2C1 [Compound A15, N-(5-Chloro-2-methoxyphenyl)-2-[7-chloro-10-(morpholine-4-carbonyl)-3,4-dihydro-1H-benzo[b][1,6]naphthyridin-2-yl]acetamide] | 100 to 1000
COc1ccc(Cl)cc1NC(=O)CN1CCc2nc3c(Cl)cccc3c(C(=O)N3CCOCC3)c2C1 [Compound A16, N-(5-Chloro-2-methoxyphenyl)-2-[6-chloro-10-(morpholine-4-carbonyl)-3,4-dihydro-1H-benzo[b][1,6]naphthyridin-2-yl]acetamide] | 100 to 1000
CCc1ccc2c(C(=O)N3CCOCC3)c3c(nc2c1)CCN(CC(=O)Nc1cc(Cl)ccc1OC)C3 [Compound A17, N-(5-Chloro-2-methoxyphenyl)-2-[7-ethyl-10-(morpholine-4-carbonyl)-3,4-dihydro-1H-benzo[b][1,6]naphthyridin-2-yl]acetamide] | 100 to 1000
CCN1CCN(C(=O)c2c3c(nc4ccccc24)CCN(CC(=O)Nc2cc(Cl)ccc2OC)C3)CC1 [Compound A23, N-(5-Chloro-2-methoxyphenyl)-2-[10-(4-ethylpiperazine-1-carbonyl)-3,4-dihydro-1H-benzo[b][1,6]naphthyridin-2-yl]acetamide] | < 100
COc1ccc(Cl)cc1NC(=O)CN1CCc2nc3ccccc3c(C(=O)N3CCN(C(=O)OCc4ccccc4)CC3)c2C1 [Compound A25, 4-{2-[(5-Chloro-2-methoxyphenylcarbamoyl)methyl]-1,2,3,4-tetrahydrobenzo[b][1,6]naphthyridine-10-carbonyl}piperazine-1-carboxylic acid benzyl ester] | 100 to 1000
COc1ccc(Cl)cc1NC(=O)CN1CCc2nc3ccccc3c(C(=O)N3CCCN(Cc4ccccc4)CC3)c2C1 [Compound A26, 2-[10-(4-Benzyl-1,4-diazepan-1-carbonyl)-3,4-dihydro-1H-benzo[b][1,6]-naphthyridin-2-yl]-N-(5-chloro-2-methoxyphenyl)acetamide] | 100 to 1000
COc1ccc(Cl)cc1NC(=O)CN1CCc2nc3ccccc3c(C(=O)N3CCNCC3)c2C1 [Compound A27, N-(5-chloro-2-methoxyphenyl)-2-[10-(piperazine-1-carbonyl)-3,4-dihydro-1H-benzo[b][1,6]naphthyridin-2-yl]acetamide] | 100 to 1000
COc1ccc(Cl)cc1NC(=O)CN1CCc2nc3ccccc3c(C(=O)N3CCN(C4CCCC4)CC3)c2C1 [Compound A28, N-(5-Chloro-2-methoxyphenyl)-2-[10-(4-cyclopentylpiperazine-1-carbonyl)-3,4-dihydro-1H-benzo[b][1,6]naphthyridin-2-yl]acetamide] | 100 to 1000
CCCN1CCN(C(=O)c2c3c(nc4ccccc24)CCN(CC(=O)Nc2cc(Cl)ccc2OC)C3)CC1 [Compound A29, N-(5-Chloro-2-methoxyphenyl)-2-[10-(4-propylpiperazine-1-carbonyl)-3,4-dihydro-1H-benzo[b][1,6]naphthyridin-2-yl]acetamide] | < 100
COc1ccc(Cl)cc1NC(=O)CN1CCc2nc3ccccc3c(C(=O)N3CCN(Cc4ccccc4)CC3)c2C1 [Compound A30, 2-[10-(4-Benzylpiperazine-1-carbonyl)-3,4-dihydro-1H-benzo[b][1,6]naphthyridin-2-yl]-N-(5-chloro-2-methoxyphenyl)acetamide] | 100 to 1000
CN1CCN(C(=O)c2c3c(nc4ccccc24)CCN(C(=O)CCc2ccc(Cl)cc2Cl)C3)CC1 [Compound A31, 3-(2,4-dichlorophenyl)-1-[10-(4-methylpiperazine-1-carbonyl)-3,4-dihydro-1H-benzo[b][1,6]naphthyridin-2-yl]propan-1-one] | > 1000
CN1CCN(C(=O)c2c3c(nc4ccccc24)CCN(C(=O)CCc2ccc(Cl)cc2F)C3)CC1 [Compound A33, 3-(4-Chloro-2-fluorophenyl)-1-[10-(4-methylpiperazine-1-carbonyl)-3,4-dihydro-1H-benzo[b][1,6]naphthyridin-2-yl]propan-1-one] | > 1000
COc1ccc(Cl)cc1NC(=O)CN1CCc2nc3c(Br)cccc3c(C(=O)N3CCOCC3)c2C1 [Compound A40, 2-[6-Bromo-10-(morpholine-4-carbonyl)-3,4-dihydro-1H-benzo[b][1,6]naphthyridin-2-yl]-N-(5-chloro-2-methoxyphenyl)acetamide] | 100 to 1000
CCOc1ccc(Cl)cc1NC(=O)CN1CCc2nc3ccccc3c(C(=O)N3CCOCC3)c2C1 [Compound A41, N-(5-Chloro-2-ethoxyphenyl)-2-[10-(morpholine-4-carbonyl)-3,4-dihydro-1H-benzo[b][1,6]naphthyridin-2-yl]acetamide] | > 1000
COc1ccc(Cl)cc1NC(=O)CN1CCc2nc3cc(Br)ccc3c(C(=O)N3CCOCC3)c2C1 [Compound A42, 2-[7-Bromo-10-(morpholine-4-carbonyl)-3,4-dihydro-1H-benzo[b][1,6]-naphthyridin-2-yl]-N-(5-chloro-2-methoxyphenyl)acetamide] | 100 to 1000
O=C(CN1CCc2nc3ccccc3c(C(=O)N3CCOCC3)c2C1)Nc1cc(Br)cc2ccoc12 [Compound A43, N-(5-Bromobenzofuran-7-yl)-2-[10-(morpholine-4-carbonyl)-3,4-dihydro-1H-benzo[b][1,6]naphthyridin-2-yl]acetamide] | 100 to 1000
O=C(CN1CCc2nc3ccccc3c(C(=O)N3CCOCC3)c2C1)Nc1cccc2ccoc12 [Compound A45, N-Benzofuran-7-yl-2-[10-(morpholine-4-carbonyl)-3,4-dihydro-1H-benzo-[b][1,6]naphthyridin-2-yl]acetamide] | > 1000
O=C(CN1CCc2nc3ccccc3c(C(=O)N3CCOCC3)c2C1)Nc1cc(Cl)cc2ccoc12 [Compound A48, N-(5-Chlorobenzofuran-7-yl)-2-[10-(morpholine-4-carbonyl)-3,4-dihydro-1H-benzo[b][1,6]naphthyridin-2-yl]acetamide] | 100 to 1000
